Laboratory results: ChEMBL document CHEMBL1155324, “Synthesis and evaluation of a series of 2,4-diaminopyridine derivatives as potential positron emission tomography tracers for neuropeptide Y Y1 receptors” (Bioorg Med Chem Lett, 2009)

Assays:
[1] = target: T1, Neuropeptide Y receptor type 1 (Homo sapiens, UniProt P25929); assay: Displacement of [125I]-PYY from human NPYY1 receptor overexpressed in CHO cell membrane after 120 mins by scintillation counting; type: cell membranes
T1 sequence (P25929 whole entry): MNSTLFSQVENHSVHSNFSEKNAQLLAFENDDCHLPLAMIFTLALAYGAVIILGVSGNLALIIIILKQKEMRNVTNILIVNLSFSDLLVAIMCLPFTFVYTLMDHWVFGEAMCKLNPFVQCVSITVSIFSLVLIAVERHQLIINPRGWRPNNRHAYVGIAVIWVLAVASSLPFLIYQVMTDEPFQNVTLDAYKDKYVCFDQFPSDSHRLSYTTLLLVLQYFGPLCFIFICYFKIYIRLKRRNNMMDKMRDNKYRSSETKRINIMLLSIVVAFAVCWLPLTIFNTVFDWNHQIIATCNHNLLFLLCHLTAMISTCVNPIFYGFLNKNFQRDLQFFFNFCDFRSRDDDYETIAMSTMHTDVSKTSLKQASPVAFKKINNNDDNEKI

[2] = Octanol-water distribution coefficient log Dat pH 7.4 by water-plug aspiration/injection method combined with HPLC-mass spectrometry
[3] = target: T2, Neuropeptide Y receptor type 5 (Homo sapiens, UniProt Q15761); assay: Displacement of [125I]-PYY from human NPYY5 receptor
T2 sequence (Q15761 whole entry): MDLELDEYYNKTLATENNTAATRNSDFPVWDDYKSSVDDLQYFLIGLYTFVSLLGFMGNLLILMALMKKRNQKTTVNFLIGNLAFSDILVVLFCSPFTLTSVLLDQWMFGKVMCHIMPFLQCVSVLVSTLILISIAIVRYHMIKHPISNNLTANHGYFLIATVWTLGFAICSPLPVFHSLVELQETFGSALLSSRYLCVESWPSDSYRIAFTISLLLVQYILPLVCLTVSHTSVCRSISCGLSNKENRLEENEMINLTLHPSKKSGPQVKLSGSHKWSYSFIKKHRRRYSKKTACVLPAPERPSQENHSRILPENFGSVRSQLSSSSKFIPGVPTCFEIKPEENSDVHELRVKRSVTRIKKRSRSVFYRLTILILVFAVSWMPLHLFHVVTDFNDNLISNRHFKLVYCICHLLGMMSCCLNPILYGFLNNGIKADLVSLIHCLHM

[4] = target: T3, Neuropeptide Y receptor type 2 (Homo sapiens, UniProt P49146); assay: Displacement of [125I]-PYY from human NPYY2 receptor
T3 sequence (P49146 whole entry): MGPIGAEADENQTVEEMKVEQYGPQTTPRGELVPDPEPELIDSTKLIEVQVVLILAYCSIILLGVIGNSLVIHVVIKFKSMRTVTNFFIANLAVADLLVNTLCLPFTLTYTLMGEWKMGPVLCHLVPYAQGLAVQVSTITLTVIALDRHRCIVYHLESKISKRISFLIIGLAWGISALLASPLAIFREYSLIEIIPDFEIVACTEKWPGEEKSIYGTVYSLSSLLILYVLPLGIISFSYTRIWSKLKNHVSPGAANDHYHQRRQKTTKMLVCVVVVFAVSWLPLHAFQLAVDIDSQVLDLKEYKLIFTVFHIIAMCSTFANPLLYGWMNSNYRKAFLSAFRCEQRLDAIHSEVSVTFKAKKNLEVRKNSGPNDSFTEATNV

[5] = Ratio of permeability from basal to apical side to apical to basal side of human KB-3-1 cells by scintillation counting; type: ADME, cell-based
[6] = target: Neuropeptide Y receptor type 4 (Homo sapiens, UniProt P50391); assay: Displacement of [125I]-PYY from human NPYY4 receptor
Chain of Neuropeptide Y receptor type 4 (P50391 whole entry): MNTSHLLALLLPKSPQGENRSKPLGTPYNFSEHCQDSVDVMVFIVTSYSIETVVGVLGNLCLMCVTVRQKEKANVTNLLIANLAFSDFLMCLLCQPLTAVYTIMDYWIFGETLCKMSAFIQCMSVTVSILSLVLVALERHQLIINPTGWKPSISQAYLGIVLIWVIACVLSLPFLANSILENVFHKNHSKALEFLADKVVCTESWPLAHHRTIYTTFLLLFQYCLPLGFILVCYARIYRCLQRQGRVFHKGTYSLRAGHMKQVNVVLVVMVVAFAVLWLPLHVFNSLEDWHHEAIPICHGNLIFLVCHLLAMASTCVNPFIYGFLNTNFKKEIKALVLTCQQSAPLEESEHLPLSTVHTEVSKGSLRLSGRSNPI

Row | Compound | IC50 [1] | logD [2] | IC50 [3] | IC50 [4] | efflux ratio [5] | IC50 [6]
1 | Cc1cccc(CNc2cc(N3CCOCC3)cc(CSc3nc(C)c(C)s3)n2)n1 | 0.27 nM | 2.9 |  |  |  | 
2 | Cc1nc(SCc2cc(N3CCSCC3)cc(NCc3cccc(F)n3)n2)oc1C |  | 3.5 |  |  |  | 
3 | Cc1nc(SCc2cc(N3CCOCC3)cc(NCc3cccc(CF)n3)n2)oc1C | 1.8 nM | 3 |  |  |  | 
4 | COCc1cccc(CNc2cc(N3CCOCC3)cc(CSc3nc(C)c(C)o3)n2)n1 | 4.3 nM | 2.8 |  |  |  | 
5 | Cc1nc(SCc2cc(N3CCOCC3)cc(NCc3cccc(COCCF)n3)n2)oc1C | 10 nM | 2.6 |  |  |  | 
6 | Cc1nc(SCc2cc(N3CCOCC3)cc(NCc3cccc(F)n3)n2)oc1C | 1.5 nM | 3.1 |  |  |  | 
7 | Cc1cccc(CNc2cc(N3CCOCC3)cc(CSc3nc(C)c(CF)s3)n2)n1 | 0.56 nM | 2.3 |  |  |  | 
8 | Cc1cccc(CNc2cc(N3CCSCC3)cc(CSc3nc(C)c(C)o3)n2)n1 | 0.16 nM | 3.6 |  |  |  | 
9 | Cc1cccc(CNc2cc(N3CCOCC3)cc(CSc3nc(CF)c(C)s3)n2)n1 |  | 2.7 | > 10000 nM | > 10000 nM | 1.8 | > 10000 nM
10 | Cc1nc(SCc2cc(N3CCOCC3)cc(NCc3ccc(F)nc3)n2)oc1C | 21 nM | 3 |  |  |  | 
11 | Cc1cccc(CNc2cc(N3CCOCC3)cc(CSc3nc4c(o3)CCCC4)n2)n1 | 0.46 nM | 3.5 |  |  |  | 
12 | Cc1nc(SCc2cc(N3CCOCC3)cc(NCc3cccnc3F)n2)oc1C | 7.7 nM | 3 |  |  |  | 
13 | Cc1nc(SCc2cc(N3CCOCC3)cc(NCc3cccc(OCCF)n3)n2)oc1C | 19 nM | 3.9 |  |  |  | 
14 | Cc1cccc(CNc2cc(N3CCS(=O)(=O)CC3)cc(CSc3nc(C)c(C)o3)n2)n1 | 1.7 nM | 2.2 |  |  |  | 
15 | Cc1nc(SCc2cc(N3CCS(=O)(=O)CC3)cc(NCc3cccc(F)n3)n2)oc1C | 8 nM | 2.3 |  |  |  | 
16 | CCc1oc(SCc2cc(N3CCOCC3)cc(NCc3cccc(C)n3)n2)nc1C | 0.39 nM | 3.1 |  |  |  | 
17 | CCc1sc(SCc2cc(N3CCOCC3)cc(NCc3cccc(C)n3)n2)nc1CF |  |  | > 10000 nM | > 10000 nM |  | > 10000 nM
18 | Cc1nc(SCc2cc(N3CCOCC3)cc(NCc3ccnc(F)c3)n2)oc1C | 5.2 nM | 3.1 |  |  |  | 
19 | Cc1cccc(CNc2cc(N3CCOCC3)cc(CSc3nc(C)c(C)o3)n2)n1 | 0.69 nM | 2.8 |  |  |  | 
